Read-outs that look alike come from different tables or passages of the source. Where only a bound is given, the exact number is not on record here.

Data on three compounds can be found in patent US12458702B2 (NATIONAL TAIWAN UNIVERSITY, priority 2022, dated 2025).

In data set [1] the test system is orthotopic CRC mice model. Briefly: Orthotopic AOM/DSS-induced CRC mice model, tumor area. The format is in vivo, BALB/c mice. How it is done: Azoxymethane (AOM)-induced murine CRC model was applied to model human CRC. BALB/c mice (6 weeks of age, male) were intraperitoneally (i.p.) injected once every two weeks with AOM (10 mg/kg body weight) or the PBS vehicle. Seven days after each AOM injection, 2% dextran sulfate sodium (DSS) was given in the drinking water for four days, followed by 3 days of regular water. This cycle was repeated three times. The mice were randomly divided into eight groups (n=5), on day 60 after the first AOM treatment. […] Tumor volumes and body weights were recorded at sacrifice. The tumors were counted under a dissecting microscope, and the area covered by tumors was measured by imaging software (AxioVision LE 4.8.2.0).

For a further data set, the system named is HCT-116. Briefly: Cytotoxicity by SRB assay in HCT-116 cells. The format is cell-based, human. How it is done: (§1) The fraction of cell survival was calculated as follows. Survival fraction=(OD treated−blank)/(OD control−blank). […] Each experiment was repeated three times.
(In general: Sulforhodamine B stains cellular protein and so reports cell mass.)

The subject of data set [2] is HT-29. Description: Cytotoxicity by SRB assay in HT-29 cells.
Description: (§4) Cancer cell lines were obtained from ATCC unless otherwise noted. HT-29 and HCT-116 cells were cultured in Dulbecco's Modified Eagle Medium (DMEM, Thermo Fisher Scientific) with 10% fetal bovine serum (FBS, Thermo Fisher Scientific) and 1% antibiotic-antimycotic (Thermo Fisher Scientific).
(§5) Briefly, CRC cells were seeded at a density of 5×10^3 cells/well in 96-well microtiter plates (100 μL/well), separated into two groups with or without GSH. After incubation for 24 hours, the culture medium was replaced by fresh medium (100 μL). […] After incubation, 10% cold trichloroacetic acid was gently added to each well and incubated at 4° C. for 1 h. The medium was removed, carefully washed with water, and dried at room temperature. […] The optical density (O.D.) was measured at 510 nm with Multi-Mode Microplate Reader (SpectraMax Paradigm, Beckman Coulter, U.S.). The fraction of cell survival was calculated as follows. Survival fraction=(OD treated−blank)/(OD control−blank). […] Each experiment was repeated three times.
Data set [3] has as its system HT-29.
Description: as §4, §5
Data set [4] concerns CRC cell lines HCT-116 and HT-29. Briefly: Cytotoxicity against CRC cell lines, summary over both lines (SRB assay). The note with it: HCT-116 and HT-29, with or without GSH. The format is cell-based, human. How it is done: as §1
The subject of a further data set is GLUT-1. Description: 2-NBDG uptake assay in COS-7 cells that overexpress GLUT-1. The format is cell-based. The note with it: 50 μM and 100 μM. How it is done:
COS-7 cells were seeded in 96-well culture plates and grown in low-glucose Dulbecco's Modified Eagle's medium supplemented with 10% fetal bovine serum and 2 mM L-glutamine for 24 h. After washing with Krebs Ringer bicarbonate buffer (KRB) (10 mM HEPES, 129 mM NaCl, 4.7 mM KCl, 2 mM CaCl2) and 1.2 mM MgSO4, 1.2 mM KH2PO4, 5 mM NaHCO3, pH 7.4), cells were incubated with the compounds to be tested in KRB containing 2-NBDG (200 μM) for 90 min at 37° C. in a 5% CO2 atmosphere, and then washed twice with KRB and lysed with lysis buffer (1% Nonidet P-40, 1% sodium deoxycholate, 40 mM KCl, and 20 mM Tris, pH 7.4). Finally, the lysates were transferred to black 96-well plates and fluorescence intensity was detected with a Multi-Mode Microplate Reader (SpectraMax Paradigm, Beckman Coulter, USA) using an excitation wavelength of 475 nm and an emission wavelength of 550 nm.

Data set [5] in a line: Plasma pharmacokinetics in mice (UPLC-MS/MS). The following applies: i.p. injection; 5-FU measured in plasma. It is filed as in vivo, BALB/c mice. How it is done: (§2) In the following PK experiments, BALB/c mice (six weeks of age, male) were randomly divided into two groups (n=3). […] Blood samples were collected via femoral vein by syringes at 0, 1, 3, 5, 10, 15, 30, 45 min, 1, 2, 4, and 24 h after drug administration. 50 μL blood samples were collected into 100 μL extraction solvent (EtOAc/MeOH=1:1) and vortex for 30 sec. The supernatants were separated from the mixture by centrifugation at 10,000 rpm for 10 min and frozen at −30° C. pending UPLC-MS/MS analysis. For bio-distribution experiments, the entire dissected organs were placed into round-bottom after weighting, two-milliliter microcentrifuge tubes with 1 mL of extraction solvent (EtOAc/MeOH=1:1) and 7 mm stainless steel beads, then homogenized for 30 min. All of the containers were maintained at 4° C. throughout the process. The supernatants were separated from the mixture by centrifugation at 10,000 rpm for 10 min and frozen at −30° C. The 200 μL solvent from crude organ suspensions was removed by the dryer and then dissolved in 50 μL extraction solvent. All samples were stored at −30° C. and analyzed within 24 h. All of the samples were filtered through 0.22 μm PTFE membranes into 12×32 mm vials for UPLC-MS/MS analyses using 5-FU-^15N2 as a marker. Pharmacokinetic parameters were calculated using the WinNonlin Software (version 5.2, Pharsight, MO, USA.)
(§3) Analyses were performed on an ACQUITY UPLC I-Class/Xevo TQ-XS IVD System (Waters, Milford, MA, USA) from College of Public Health, National Taiwan University. The reverse phase BEH C18 (100 mm×2.1 mm, 1.7 μm, Waters) and VanGuard BEH C18 (5 mm×2.1 mm, 1.7 μm, Waters) precolumns were used to separate the analytes. All data were acquired by MassLynx V4.2. The mobile phase consisted of a 10 mM aqueous solution of ammonium acetate (A) and acetonitrile (B), set as follows: 0.00 min 98% A→1.00 min 98% A→3.00 min 10% A→4.50 min 10% A→4.60 min 98% A→6.00 min 98% A; at a rate of 0.5 mL/min for 6.00 min with 4 μL per injection. The column oven was maintained at 60° C. Multiple reaction monitoring (MRM) method was applied in quantification. Mass spectrometer parameters were as follows: capillary voltage, 3.0 kV/3.0 kV, respectively, for positive/negative ion mode; ion source temperature, 120° C.; desolvation temperature, 450° C.; cone gas flow (N2), 50 L/h; desolvation gas flow (N2), 700 L/h; multiplier, 650 V; and collision gas pressure (Ar), 3−4×10^−3 mbar.

Data set [6] concerns metastatic colorectal cancer. The following applies: 5-FU-based chemotherapy; cited from earlier work.
Data set [7] is described as follows: Organ biodistribution in mice (UPLC-MS/MS). It is filed as in vivo, BALB/c mice. The following applies: 1 hour post i.p. injection; compound 7 50 mg/kg, free 5-FU 9.5 mg/kg. How it is done: as §2
as §3, with “Mass spectrometer parameters were as follows: capillary voltage, 3.0 kV/3.0 kV, respectively, for positive/negative ion mode; ion source temperature, 120° C.; desolvation temperature, 450° C.; cone gas flow (N2), 50 L/h; desolvation gas flow (N2), 700 L/h; multiplier, 650 V; and collision gas pressure (Ar), 3−4×10^−3 mbar.” left out

A further data set concerns NHDF. Description: Cytotoxicity by SRB assay in low GLUT-1 normal cell line NHDF. The following applies: Homo sapiens, low expression GLUT-1 normal cell line. It is filed as cell-based. How it is done: as §1
Data set [8] is described as follows: Body weight changes in the CRC mice model. It is filed as in vivo, BALB/c mice. The note with it: free 5-FU 50 mg/kg i.p., after injection. How it is done: Azoxymethane (AOM)-induced murine CRC model was applied to model human CRC. BALB/c mice (6 weeks of age, male) were intraperitoneally (i.p.) injected once every two weeks with AOM (10 mg/kg body weight) or the PBS vehicle. Seven days after each AOM injection, 2% dextran sulfate sodium (DSS) was given in the drinking water for four days, followed by 3 days of regular water. This cycle was repeated three times. The mice were randomly divided into eight groups (n=5), on day 60 after the first AOM treatment. […] Irinotecan (20 mg/kg), compound 31 (20 mg/kg), and irinotecan+compound 17 (20 mg/kg of irinotecan and 14 mg/kg of compound 17) were injected i.p. q.o.d for two weeks. […] Tumor volumes and body weights were recorded at sacrifice. The tumors were counted under a dissecting microscope, and the area covered by tumors was measured by imaging software (AxioVision LE 4.8.2.0).

[9] abbreviates: Homo sapiens, HT-29, 48 h, read-out: IC50 HT-29.

As to `CCc1c2c(nc3ccc(OCc4ccc(NC(=O)[C@H](CCCNC(N)=O)NC(=O)[C@@H](NC(=O)CCCCN5C(=O)CC(SCCOCCOCCOc6cc(O)c(C(=O)CCc7ccc(O)cc7)c(O[C@@H]7O[C@H](CO)[C@@H](O)[C@H](O)[C@H]7O)c6)C5=O)C(C)C)cc4)cc13)-c1cc3c(c(=O)n1C2)COC(=O)[C@]3(O)CC` (some centres unmarked) [Compound 37], the “anti-tumor efficacy (tumor area), in words” value in [1] (SN-38 series, i.v. once every two days for two weeks, 40 mg/kg vs irinotecan 40 mg/kg) was “ameliorated the tumor area”. For the same compound, the IC50 in the data set with HCT-116 (48 h, prepared in DMSO, read-out: IC50 HCT-116) is 3.25 ± 0.42 µM; in the data set with HCT-116 (Homo sapiens, HCT-116, 48 h, 48 h, prepared in DMSO, read-out: IC50 HCT-116) it was 3 to 7 µM; with HT-29 [2] (setting [9]), above 100 µM. For the same compound, the “cytotoxicity in HT-29 cell line, in words” value in the data set with HT-29 [3] was “less sensitive”.
With `O=C(CCc1ccc(O)cc1)c1c(O)cc(OCCOCCOCCS)cc1O[C@@H]1O[C@H](CO)[C@@H](O)C(O)[C@H]1O` (stereo partly drawn) [Compound 16, 1-(2-Hydroxy-4-(2-(2-(2-mercaptoethoxy)ethoxy)ethoxy)-6-(((2S,3R,5S,6R)-3,4,5-trihydroxy-6-(hydroxymethyl)tetrahydro-2H-pyran-2-yl)oxy)phenyl)-3-(4-hydroxyphenyl)propan-1-one], the IC50 was above 100 µM in the data set with HCT-116 (Homo sapiens, HCT-116, read-out: IC50 HCT-116 5 mM GSH, 48 h, 5 mM GSH); above 100 µM in the data set with HCT-116 (Homo sapiens, HCT-116, read-out: IC50 HCT-116 5 mM GSH, 72 h, prepared in DMA, 5 mM GSH); above 100 µM with HCT-116 (Homo sapiens, HCT-116, 48 h, prepared in DMSO, read-out: IC50 HCT-116); above 100 µM in the data set on HCT-116 (Homo sapiens, HCT-116, 48 h, w/o GSH, read-out: IC50 HCT-116 w/o GSH); above 100 µM with HCT-116 (Homo sapiens, HCT-116, 72 h, prepared in DMA, w/o GSH, read-out: IC50 HCT-116 w/o GSH); above 100 µM in the data set on HT-29 [2] (setting [9]). Moreover, the IC50 was above 100 µM in the data set with HT-29 [2] (Homo sapiens, HT-29, 48 h, read-out: IC50 HT-29 5 mM GSH); above 100 µM in the data set with HT-29 [2] (Homo sapiens, HT-29, 48 h, read-out: IC50 HT-29 w/o GSH); above 100 µM in the data set with HT-29 [2] (read-out: IC50 HT-29 5 mM GSH, 48 h, prepared in DMA, 5 mM GSH); above 100 µM with HT-29 [2] (read-out: IC50 HT-29 w/o GSH, 48 h, prepared in DMA, w/o GSH). Moreover, the “cytotoxicity against CRC cell lines, in words” value in data set [4] is given as “did not exhibit any inhibitory activity”. Further, in the data set with GLUT-1, the “inhibition of GLUT-1 activity (2-NBDG uptake), in words” value was “not able to inhibit GLUT-1”.
Regarding `O=c1[nH]cc(F)c(=O)[nH]1` [5-FU, 5-fluorouracil, reference compound], in data set [1] (5-FU series, 50 mg/kg i.p. once every 3 days for 3 weeks), the “reduction of tumor volume” value was found to be 33%. Also, the “T. of 5-FU” value in data set [5] is listed as 10 min. Besides, the “mean response rate of patients” value in [6] is recorded as “approximately 23%”. In data set [7], the “organ distribution of 5-FU, in words” value is “distributed in stomach, spleen, and kidney”. The IC50 in the data set with NHDF is 70.4 ± 7.2 µM. For the same compound, the “loss of body weight” value in [8] was “about 10%”.
